Usually Tmax stands for the time from dosing to the highest level. By AUC(0-t) is commonly meant the area under the concentration-time curve up to a stated or last time point. For orientation: Cmax means the maximum level reached in the sampled fluid or tissue. As usually defined, the microsomal CLint is the rate of metabolic loss divided by the concentration. A higher microsomal CLint goes with faster metabolism. One may read the Km as the concentration of substrate that gives half-maximal velocity. For orientation: fraction unbound means free concentration divided by total concentration.

Each structure is given as a SMILES string. Like-named read-outs stand apart in the source and are kept apart here.

Series [1] can be described thus: In vivo pharmacokinetic study in rats, oral DUT without or with KET. Further details: species or system rat. As to conditions: for AUC(0-t) / Cmax: po, 5 mg/kg. The text has this: The animal experiment protocols used in the present study were approved by the Pusan National University-Institutional Animal Care and Use Committee for scientific care and ethical procedures (Busan, Korea; approval date: 01/05/2018; approval number: PNU-2018-1848). Male Sprague–Dawley rats (8-week-old; approximately 250 g) were purchased from DBL Co., Ltd. (Incheon, Korea). The rats were acclimatized in a clean room of the Laboratory Animal Center of Pusan National University (Busan, Korea) for 1 week. Then, they were fasted for 12 h prior to the pharmacokinetic experiment and then anesthetized by intramuscular injection of Zoletil at a dose of 20 mg/kg. The femoral vein and artery of the rats were cannulated with a polyethylene tube (BD Medical; Franklin Lakes, NJ, USA). At approximately 4–6 h after the surgery for cannulation, an intravenous dose of DUT (2.5 mg/kg) simultaneously with or without intravenous KET ([…]) was administered to the rats. Drugs were dissolved in a vehicle consisting of dimethyl sulfoxide, ethanol, and polyethylene glycol 400 at a ratio of 10:5:85 (v/v/v). Blood (approximately 200 μL) was collected in heparin pre-treated microcentrifuge tubes via the femoral artery at 0, 1, 5, 15, 30, 60, 120, 180, 240, 360, 480, and 1200 min after the intravenous dose and at 0, 5, 15, 30, 60, 120, 150, 180, 240, 360, 480, and 1200 min after the oral dose. Following centrifugation of the blood samples at 3000× g at 4 °C for 10 min [19], 100 μL aliquots of plasma were stored at −80 °C.
The half maximal inhibitory concentration (IC50) of KET for the inhibition of the DUT metabolism was determined by the nonlinear regression analysis (GraphPad Prism ver. 5.01; GraphPad Software Inc., San Diego, CA, USA) based on the following Hill equation: y = Min + Max−Min/1 + (x/IC50)^-P where Max and Min are the initial and final y value, respectively, and the exponent P represents the Hill coefficient. Peak plasma concentration (Cmax) and time to reach Cmax (Tmax) were read directly from the observed data. Non-compartmental analysis was conducted to estimate pharmacokinetic parameters such as total area under plasma concentration versus time curve from time zero to time of last sampling (AUClast), total area under plasma concentration versus time curve from time zero to infinity (AUCinf), total plasma clearance (CL), volume of distribution at steady state (Vss), and terminal half-life (t1/2) using the NCA200 and 201 models of WinNonlin ver. 3.1 (Certara USA Inc., Princeton, NJ, USA).

A short description of series [2]: NADPH-dependent metabolism (disappearance) of DUT in rat liver microsomes. It counts as in vitro ADME. As to conditions: RLM. The procedure:
In vitro metabolism studies in RLM and HLM were conducted as previously reported with slight modifications. To investigate the NADPH-dependent metabolism (via phase I enzymes including CYPs) of DUT in RLM and HLM, the disappearance of DUT at various concentrations ranging from 1 to 100 μM in the presence of NADPH was determined in RLM and HLM. The substrate (DUT) concentration ([S]; μM) versus the initial metabolic rate (V; pmol/min/mg protein) data were interpreted based on the Michaelis–Menten kinetics, and relevant parameters were estimated by nonlinear regression analysis (GraphPad Prism ver. 5.01; GraphPad Software, San Diego, CA, USA) based on the following Michaelis–Menten equation: V = Vmax × [S]/Km + [S] where Vmax and Km are the maximal metabolic rate and Michaelis–Menten constant, respectively. The intrinsic metabolic clearance (CLint) was calculated by dividing Vmax by Km. The unbound Km (Km,u) was calculated as the Km multiplied by the unbound fraction in microsomes (fu,mic). The unbound CLint (CLint,u) was calculated as the CLint divided by the fu,mic.
To investigate the metabolic interaction potential between DUT and KET, the disappearance of DUT (5 μM) in RLM and HLM was determined under the absence and presence of KET at various concentrations ranging from 1 to 5000 nM. A microsomal reaction mixture was prepared as follows (total volume: 0.2 mL): 1 mM NADPH, 10 mM MgCl2, substrate (DUT), and inhibitor (KET), RLM or HLM (1 mg/mL), and 50 mM phosphate buffer. […] The unbound fractions of DUT in rat plasma, RLM, human plasma, and HLM were measured using a rapid equilibrium dialysis (RED) device (Thermo Fisher Scientific, Inc., Waltham, MA, USA) as described in a previous study. […] The fraction unbound was calculated as the ratio of the drug concentrations in the “buffer” chamber to those in the “sample” chamber. The blood-to-plasma concentration ratio (RB) of DUT was determined as described previously. […] The concentrations of DUT in the plasma sample were determined by the validated HPLC analysis.

Series [3] can be described thus: Unbound fraction by rapid equilibrium dialysis, human plasma. The format is in vitro ADME. The procedure: (§1) To investigate the metabolic interaction potential between DUT and KET, the disappearance of DUT (5 μM) in RLM and HLM was determined under the absence and presence of KET at various concentrations ranging from 1 to 5000 nM. A microsomal reaction mixture was prepared as follows (total volume: 0.2 mL): 1 mM NADPH, 10 mM MgCl2, substrate (DUT), and inhibitor (KET), RLM or HLM (1 mg/mL), and 50 mM phosphate buffer. At 0 and 90 min after starting the metabolic reaction, a 50 μL aliquot of microsomal incubation mixture was sampled and immediately transferred into a clean 1.5 mL microcentrifuge tube containing 100 μL cold ACN with an internal standard (celecoxib at 400 ng/mL) to stop the metabolic reaction. After vortex mixing and centrifugation at 15,000× g for 10 min, a 100 μL aliquot of the supernatant was stored at −80 °C. The unbound fractions of DUT in rat plasma, RLM, human plasma, and HLM were measured using a rapid equilibrium dialysis (RED) device (Thermo Fisher Scientific, Inc., Waltham, MA, USA) as described in a previous study. […] The fraction unbound was calculated as the ratio of the drug concentrations in the “buffer” chamber to those in the “sample” chamber. The blood-to-plasma concentration ratio (RB) of DUT was determined as described previously. […] The concentrations of DUT in the plasma sample were determined by the validated HPLC analysis.
A general note: In equilibrium dialysis free small molecules cross a membrane that holds back macromolecules.

Series [4] in a line: Unbound fraction by rapid equilibrium dialysis, HLM. The format is in vitro ADME, human. As for the experimental part: as §1
Series [5] is described as follows: Blood-to-plasma concentration ratio (RB), blood distribution. It counts as in vitro ADME. As to conditions: rat, fresh rat blood, 37 °C. As for the experimental part:
as §1

Series [6] relates to type-2 5AR. Further details: method as in PMID 16964191, PMID 16719800. As to conditions: previous in vitro studies; cited from earlier work.
The mark [7] stands for this setting: male, Sprague-Dawley, rat, plasma, oral DUT 5 mg/kg with oral KET (20 mg/kg), n = 4.
Where [8] appears, read: male, Sprague-Dawley, rat, plasma, oral DUT 5 mg/kg, DUT alone, n = 4.

For the molecule `C[C@]12C=CC(=O)N[C@@H]1CC[C@@H]1[C@@H]2CC[C@]2(C)[C@@H](C(=O)Nc3cc(C(F)(F)F)ccc3C(F)(F)F)CC[C@@H]12` [DUT, Dutasteride], the concentration at 30 min in series [1] (male, Sprague-Dawley, rat, plasma sample collected at 30 min after oral DUT 5 mg/kg, representative chromatogram) came out at 276 ng/mL. Moreover, the Tmax in series [1] (male, Sprague-Dawley, rat, plasma, oral DUT 5 mg/kg, DUT alone, median (range), n = 4, read-out: Tmax (converted)) was 1 h; in series [1] (oral DUT 5 mg/kg with oral KET (20 mg/kg), median, n = 4) it was 1 h. The area under the curve AUC(0-t) in series [1] (setting [7]) is 6470 ng·h/mL; in series [1] (setting [8]), 4580 ng·h/mL. Also, the figures for the peak concentration (Cmax) in series [1] (setting [7]) and in series [1] (setting [8]) were 419 ± 27 ng/mL and 289 ± 10 ng/mL, respectively. In addition, in series [2] (DUT 1 to 100 μM, NADPH), the Vmax is 114 ± 10 pmol/min/mg protein. This molecule showed an intrinsic metabolic clearance (microsomal CLint) in series [2] (Sprague-Dawley, rat, rat liver microsomes, Vmax divided by Km) of 3.45 ± 0.37 µL/min/mg. Besides, the Km in series [2] (rat, rat liver microsomes, DUT 1 to 100 μM, NADPH) was found to be 33.3 ± 3.6 µM. Moreover, the free fraction (fraction unbound) at 5 μM in series [3] (DUT 5 μM, RED device) turned out to be 0.0078; in series [4] (human, human liver microsomes, DUT 5 μM, RED device), 0.091. Further, the “fraction of unbound DUT, presence versus absence of KET” value is on record as “no significant differences” in series [3] (DUT and KET 5 μM, n = 5); “no significant differences” in series [4] (DUT and KET 5 μM, n = 5). In addition, the blood plasma ratio at 60 min, 5 μM is 0.712 ± 0.026 in series [5] (DUT 5 μM alone) and 0.692 ± 0.036 in series [5] (DUT 5 μM in the presence of KET 5 μM). Also, the “more potent inhibition of type-2 5AR compared to finasteride” value in series [6] is 2.5 fold.

The values are drawn from article PMC6956158, “In Vitro and In Vivo Assessment of Metabolic Drug Interaction Potential of Dutasteride with Ketoconazole” (Pharmaceutics, 2019).
